# What was measured:
# Aurora A = Aurora A (Homo sapiens (Human), UniProt O14965); test: Aurora A kinase assay (mobility shift assay); type: biochemical
# Procedure: (§1) Example A: Evaluation of Aurora a and Aurora B Inhibitory Effect—Kinase Assay
# (§2) The inhibitory activities of a test compound against Aurora A and Aurora B were measured according to the following method.
# (§3) The IC50 value of Aurora A and Aurora B kinase was performed by Sundia MediTech Co. Ltd. using Mobility shift assay.
# (§4) • (1) Prepare a 1× kinase buffer [50 mM 4-(2-hydroxyethyl)-1-piperazineethanesulfonic acid (HEPES), PH 7.5, 0.01% Brij-35, 10 mM MgCl2, 2 mM dithiothreitol (DTT)]. • (2) Prepare compound:
# (§5) The testing compound was dissolved with DMSO. The testing compound was diluted up to 100× final concentration in a 384-well plate. Transfer 250 nL of the compound dilution to a 384-well assay plate using Echo 550. 100% DMSO of 250 nL was added to the negative control well and the positive control well. • (3) Prepare a 2.5× enzyme solution using the above 1× kinase buffer. • (4) Add 10 μL of the 2.5× enzyme solution to the compound well and the positive control well of the 384-well assay plate. Add 10 μL of the 1× kinase buffer to the negative control well. • (5) The 384-well plate was centrifuged at 1000 rpm for 30 seconds and incubated at room temperature for 10 min. • (6) A mixture of ATP and Kinase substrate 21 with a final concentration of 25/15× was prepared by the 1× kinase buffer. • (7) Add 15 μL of the mixture of 25/15×ATP and kinase substrate solution 21 to start reaction. • (8) The 384-well plate was centrifuged at 1000 rpm for 30 seconds and incubated at room temperature. • (9) 30 μL of the stop and detection buffer was added to stop the kinase reaction and centrifuged at 1000 rpm for 30 seconds. • (10) Collect data on Caliper EZ ReaderII. Data Analysis:
# (§6) Conversion %_sample is conversion rate data of samples. Conversion %_min is mean value of negative control (conversion rate data without enzyme activation). Conversion %_max is mean positive control (conversion rate data without compound).
# (§7) The log of concentration is on the X axis, and the percentage inhibition is on the Y axis. Fit the Quantitative effect curves with log (inhibitor) vs. response—Variable slope in GraphPad Prism5 obtain IC50 values. Equation used is Y=Bottom+(Top−Bottom)/(1+10^((Log IC50−X)*HillSlope)).
# Aurora B = Aurora B (Homo sapiens (Human), UniProt Q96GD4); test: Aurora B kinase assay (mobility shift assay); type: biochemical; conditions: ratio of Aurora B IC50 to Aurora A IC50
# Sequence of Aurora B (Q96GD4 whole entry): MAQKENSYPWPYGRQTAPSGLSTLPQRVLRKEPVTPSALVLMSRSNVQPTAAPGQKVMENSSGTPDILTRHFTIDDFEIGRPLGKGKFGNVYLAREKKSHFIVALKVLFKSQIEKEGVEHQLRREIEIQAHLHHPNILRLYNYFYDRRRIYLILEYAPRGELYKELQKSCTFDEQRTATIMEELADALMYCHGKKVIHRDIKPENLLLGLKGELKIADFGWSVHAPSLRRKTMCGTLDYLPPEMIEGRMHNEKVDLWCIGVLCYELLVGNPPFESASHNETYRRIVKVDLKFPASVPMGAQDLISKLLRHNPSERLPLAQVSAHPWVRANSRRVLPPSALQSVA
# Procedure: as §1, §2, §3, §4, §5, §6, §7
# NCI-H2171 cells = test: Cell proliferation assay (CellTiter-Glo), NCI-H2171; type: cell-based; conditions: Homo sapiens, NCI-H2171, 120 h, 5 days
# Procedure: (§8) Example B: Cell Proliferation Assay
# (§9) NCI-H2171 and NCI-H446 cell proliferation analysis were conducted by CellTiter-Glo (Promega, Cat #G1111). The cells will be harvested respectively during the logarithmic growth period and counted with hemocytometer. […] Adjust NCI-H2171 and NCI-H446 cells concentrations to 1.0×10^5 cells/mL with complete medium (RPMI-1640 medium supplemented with 10% (v/v) fetal bovine serum). 100 μL/cell suspensions were added to 96-well plates, and the final cell densities were 1.0×10^4 cells/well. The plate will be cultured overnight in 5% CO2 and 95% humidity at 37° C. The next day, the test compound was dissolved in DMSO as stock solution. Then the different concentrations of compound were added into 96-well plates. The plates will be cultured for 5 days, then measured by means of CellTiter-Glo assay. 50 μL/cell CellTiter-Glo reagent was added into 96-well plates. Shock incubation for 5 min and then stand incubation for 10 min at room temperature. Record the Luminosity values using an microplate spectrophotometer (Spark, Tecan). Fit the data using GraphPad 8.0 and obtain IC50 values.
# (§10) Formula: Survival (%)=(Lumtest−Lummedia control)/(Lumcell control−Lummedia control)×100%
# NCI-H446 cells = test: Cell proliferation assay (CellTiter-Glo), NCI-H446; type: cell-based; conditions: Homo sapiens, NCI-H446, 120 h, 5 days
# Procedure: as §8, §9, §10
# [1] = test system: NCI-H446 human small cell lung cancer xenograft; test: In vivo anti-tumor efficacy, NCI-H446 xenograft model; parameters: species or system BALB/c nude mice; conditions: 15 mg/kg po., BID × 10days, QD × 19days, treatment 29 days, Table C does not say which xenograft (NCI-H446 or NCI-H69); for TV (mm^3): mean ± sem
# Procedure: This study is to examine the anti-tumor efficacy of test compounds in NCI-H446 and NCI-H69 human small cell lung cancer xenograft model in BALB/c nude mice. Each mouse was inoculated subcutaneously at the right flank region with NCI-H446 (3×10^6) and NCI-H69 cells (5×10^6) in 0.1 mL of PBS and Matrigel (1:1) for tumor development. The mouse were randomized according to tumor size and weight, the treatment began when the mean tumor size reached 100-200 mm^3. Anti-tumor activity was assessed according to relative tumor inhibition rate (TGI).
# Tumor volumes were measured in two dimensions using a caliper, and the volume was expressed in mm^3 using the formula: V=0.5 a×b^2 where a and b are the long and short diameters of the tumor, respectively. Statistical analysis of difference in tumor volume among the groups were performed using one-way ANOVA. All data was analyzed using SPSS 22.0 software, p<0.05 was considered to be statistically significant.
# PK in rat = type: in vivo; conditions: rat, plasma, SD male rats; for clearance / Vd: IV: 3 mg/kg; for Vd: read-out: Vss; for AUC(0-t) / half-life / Cmax: PO: 10 mg/kg; for bioavailability: PO: 10 mg/kg vs IV: 3 mg/kg; for Cmax: read-out: Cmax
# Procedure: The compounds were dissolved into 10% DMSO, 30% PEG400, and 60% saline to obtain a solution. SD male rats were given the compound orally and intravenously. Then plasma samples were collected at 0 hour (pre-dose), 0.25, 0.5, 1, 2, 4, 7, 24 hours post-dose. Plasma drug concentration was detected by LC-MS/MS. Pharmacokinetic parameters were calculated using WinNonlin's software with non-compartmental model.
# Sequence of Aurora A (O14965 whole entry): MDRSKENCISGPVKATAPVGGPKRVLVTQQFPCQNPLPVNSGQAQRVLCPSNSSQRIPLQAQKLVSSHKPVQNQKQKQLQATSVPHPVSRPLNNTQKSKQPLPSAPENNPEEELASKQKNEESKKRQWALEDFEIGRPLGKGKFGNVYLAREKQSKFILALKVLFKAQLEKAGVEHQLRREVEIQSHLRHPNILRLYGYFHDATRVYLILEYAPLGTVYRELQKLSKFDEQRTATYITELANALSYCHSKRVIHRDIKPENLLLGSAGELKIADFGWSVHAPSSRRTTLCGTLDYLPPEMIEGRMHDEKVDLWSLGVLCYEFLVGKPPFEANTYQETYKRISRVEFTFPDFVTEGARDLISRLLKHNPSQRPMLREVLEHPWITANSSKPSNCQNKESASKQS
Structure (SMILES),IC50 (Aurora A) [nM],IC50 Ratio Aur B/Aur A (Aurora B),IC50 (NCI-H2171 cells) [nM],IC50 (NCI-H446 cells) [nM],TGITV(%) [1] [%],TV (mm^3) [1] [mm^3],clearance (PK in rat) [mL/min/kg],Vd (PK in rat) [L/kg],AUC(0-t) (PK in rat) [µg·h/mL],half-life (PK in rat) [h],bioavailability (PK in rat) [%],Cmax (PK in rat) [ng/mL]
"Cc1cc(Nc2nc(C[C@@]3(C(=O)O)CCN(Cc4cccc(Cl)c4F)[C@H](C)C3)ccc2F)[nH]n1 [Example 5, (2R,4R)-1-(3-chloro-2-fluorobenzyl)-4-((5-fluoro-6-((3-methyl-1H-pyrazol-5-yl)amino)pyridin-2-yl)methyl)-2-methylpiperidine-4-carboxylic acid]",0.59,1311,30,80,98,27 ± 5,2.74,0.56,179,4.25,168,26600
"Cc1cc(Nc2ccc(F)c(C[C@@]3(C(=O)O)CCN(Cc4c(F)ccc(Cl)c4F)[C@H](C)C3)n2)n[nH]1 [Example 6, (2R,4R)-1-(3-chloro-2,6-difluorobenzyl)-4-((3-fluoro-6-((5-methyl-1H-pyrazol-3-yl)amino)pyridin-2-yl)methyl)-2-methylpiperidine-4-carboxylic acid]",0.33,6112,55,103,–,–,0.67,0.18,215,6.3,86,34900
"Cc1cc(Nc2cc(C)c(F)c(C[C@@]3(C(=O)O)CCN(Cc4cccc(Cl)c4F)[C@H](C)C3)n2)n[nH]1 [Example 49, (2R,4R)-1-(3-chloro-2-fluorobenzyl)-4-((3-fluoro-4-methyl-6-((5-methyl-1H-pyraz-ol-3-yl)amino)pyridin-2-yl)methyl)-2-methylpiperidine-4-carboxylic acid]",0.7,443,18,24,90,160 ± 26,1.05,0.22,202,2.95,127,21000
"Cc1cc(Nc2cc(C)c(F)c(C[C@@]3(C(=O)O)CCN(Cc4c(F)ccc(Cl)c4F)[C@H](C)C3)n2)n[nH]1 [Example 50, (2R,4R)-1-(3-chloro-2,6-di-fluorobenzyl)-4-((3-fluoro-4-methyl-6-((5-methyl-1H-pyra-zol-3-yl)amino)pyridin-2-yl)-methyl)-2-methylpiperidine-4-carboxylic acid]",0.52,845,25,73,–,–,1.45,0.26,173,3.62,140,16100
"Cc1cc(Nc2cc(Cl)c(F)c(C[C@@]3(C(=O)O)CCN(Cc4cccc(Cl)c4F)[C@H](C)C3)n2)n[nH]1 [Example 72, (2R,4R)-1-(3-chloro-2-fluorobenzyl)-4-((4-chloro-3-fluoro-6-((5-methyl-1H-pyrazol-3-yl)amino)pyridin-2-yl)methyl)-2-methylpiperidine-4-carboxylic acid]",0.64,582,23,56,89,176 ± 25,–,–,–,–,–,–
"Cc1cc(Nc2nc(C[C@@]3(C(=O)O)CCN(Cc4cccc(Cl)c4F)[C@H](C)C3)cc(Cl)c2F)n[nH]1 [Example 73, (2R,4R)-1-(3-chloro-2-fluorobenzyl)-4-((4-chloro-5-fluoro-6-((5-methyl-1H-pyrazol-3-yl)amino)pyridin-2-yl)methyl)-2-methylpiperidine-4-carboxylic acid]",0.76,779,27,63,–,–,–,–,–,–,–,–
"Cc1cc(Nc2nc(C[C@@]3(C(=O)O)CCN(Cc4cccc(Cl)c4F)[C@H](C)C3)cc(C)c2F)n[nH]1 [Example 78, (2R,4R)-1-(3-chloro-2-fluorobenzyl)-4-((5-fluoro-4-methyl-6-((5-methyl-1H-pyrazol-3-yl)amino)pyridin-2-yl)methyl)-2-methylpiperidine-4-carboxylic acid]",0.37,1219,13,32,96,65 ± 14,0.585,0.22,236,4.61,85.8,28900

# — patent US11384066B1, “Heterocyclic compounds useful as aurora a selective inhibitors” (Jacobio Pharmaceuticals Co., Ltd., priority 2020, dated 2022)
